Measured values taken from patent US20200000756A1, “NEOSTIGMINE COMBINATION AND COMPOSITIONS” (priority 2017, published 2020).
Entries after “also recorded” stand apart in the source; their conditions may differ.

Assay: Phase I single-blind study: single oral doses of neostigmine bromide with or without a single oral dose of ondansetron hydrochloride dihydrate
Format: in vivo
Conditions: six human subjects
Protocol: The ability of the 5HT3-antagonists for preventing the gastro-intestinal adverse effects of orally administered neostigmine bromide in humans was tested.
A Phase I study was conducted in six human subjects receiving a single oral dose of neostigmine bromide with or without a single oral dose of ondansetron hydrochloride dihydrate, as a representative 5HT3-antagonist. The study was a single center, single-blind.
To be enrolled in the study, participants (aged 18 to 60 years of age) were required, to refrain from consuming xanthine, quinine and caffeine containing beverages, and to refrain from prolonged intensive physical exercise during the study conduct. […] The key criteria for exclusion of a subject from enrollment in the study were as follows:
any clinically relevant acute or chronic disease which could interfere with the subjects' safety during the trial, expose them to undue risk, or interfere with the study objectives; history or presence of gastrointestinal, hepatic, or renal disease or other condition known to interfere with the absorption, distribution, metabolism or excretion of drugs; history of substance abuse, known drug addiction, or positive test for drugs of abuse or alcohol; history of drug or other significant allergy; ECG changes including QT interval prolongation and congenital long QT syndrome. […]

Cc1nccn1CC1CCc2c(c3ccccc3n2C)C1=O (racemic) [ondansetron, (±) 1,2,3,9-tetrahydro-9-methyl-3-[(2-methyl-1H-imidazol-1-yl)methyl]-4H-carbazol-4-one]
neostigmine dose reached before second intolerable dose (FID-2) on co-administration of ondansetron (neostigmine dose escalated together with oral ondansetron hydrochloride dihydrate 10 mg (8 mg base)): enabled subjects to reach neostigmine doses as high as or higher than the recommended efficacious dose for the treatment of MG | gastro-intestinal AEs of neostigmine on co-administration of ondansetron (single oral ondansetron hydrochloride dihydrate 10 mg (equivalent to 8 mg ondansetron base) with oral neostigmine bromide at the first intolerable dose and above): attenuated gastro-intestinal AEs reported with neostigmine alone; also recorded: prevented the occurrence of gastro-intestinal AEs
